Measurements reported in patent US20240024488A1, “COMPOUNDS AND USES THEREOF” (Foghorn Therapeutics Inc., priority 2020, published 2024).

What was measured:
[1] = biological target: T1, HiBit-BRG1 fusion protein (Homo sapiens, UniProt P51532); test: HiBiT-BRG1 cell-based degradation assay (Nano-Glo HiBiT Lytic Detection, 24 h); details: HeLa cell line expressing HiBit-BRG1 and LgBit; for Dmax: read-out: BRG1 HiBit Degradation Maximum (%); for DC50: read-out: BRMG1 HiBit Degradation IC50
T1 construct: expressed in transfected cells
T1 sequence (P51532 whole entry, the tested form may be a part): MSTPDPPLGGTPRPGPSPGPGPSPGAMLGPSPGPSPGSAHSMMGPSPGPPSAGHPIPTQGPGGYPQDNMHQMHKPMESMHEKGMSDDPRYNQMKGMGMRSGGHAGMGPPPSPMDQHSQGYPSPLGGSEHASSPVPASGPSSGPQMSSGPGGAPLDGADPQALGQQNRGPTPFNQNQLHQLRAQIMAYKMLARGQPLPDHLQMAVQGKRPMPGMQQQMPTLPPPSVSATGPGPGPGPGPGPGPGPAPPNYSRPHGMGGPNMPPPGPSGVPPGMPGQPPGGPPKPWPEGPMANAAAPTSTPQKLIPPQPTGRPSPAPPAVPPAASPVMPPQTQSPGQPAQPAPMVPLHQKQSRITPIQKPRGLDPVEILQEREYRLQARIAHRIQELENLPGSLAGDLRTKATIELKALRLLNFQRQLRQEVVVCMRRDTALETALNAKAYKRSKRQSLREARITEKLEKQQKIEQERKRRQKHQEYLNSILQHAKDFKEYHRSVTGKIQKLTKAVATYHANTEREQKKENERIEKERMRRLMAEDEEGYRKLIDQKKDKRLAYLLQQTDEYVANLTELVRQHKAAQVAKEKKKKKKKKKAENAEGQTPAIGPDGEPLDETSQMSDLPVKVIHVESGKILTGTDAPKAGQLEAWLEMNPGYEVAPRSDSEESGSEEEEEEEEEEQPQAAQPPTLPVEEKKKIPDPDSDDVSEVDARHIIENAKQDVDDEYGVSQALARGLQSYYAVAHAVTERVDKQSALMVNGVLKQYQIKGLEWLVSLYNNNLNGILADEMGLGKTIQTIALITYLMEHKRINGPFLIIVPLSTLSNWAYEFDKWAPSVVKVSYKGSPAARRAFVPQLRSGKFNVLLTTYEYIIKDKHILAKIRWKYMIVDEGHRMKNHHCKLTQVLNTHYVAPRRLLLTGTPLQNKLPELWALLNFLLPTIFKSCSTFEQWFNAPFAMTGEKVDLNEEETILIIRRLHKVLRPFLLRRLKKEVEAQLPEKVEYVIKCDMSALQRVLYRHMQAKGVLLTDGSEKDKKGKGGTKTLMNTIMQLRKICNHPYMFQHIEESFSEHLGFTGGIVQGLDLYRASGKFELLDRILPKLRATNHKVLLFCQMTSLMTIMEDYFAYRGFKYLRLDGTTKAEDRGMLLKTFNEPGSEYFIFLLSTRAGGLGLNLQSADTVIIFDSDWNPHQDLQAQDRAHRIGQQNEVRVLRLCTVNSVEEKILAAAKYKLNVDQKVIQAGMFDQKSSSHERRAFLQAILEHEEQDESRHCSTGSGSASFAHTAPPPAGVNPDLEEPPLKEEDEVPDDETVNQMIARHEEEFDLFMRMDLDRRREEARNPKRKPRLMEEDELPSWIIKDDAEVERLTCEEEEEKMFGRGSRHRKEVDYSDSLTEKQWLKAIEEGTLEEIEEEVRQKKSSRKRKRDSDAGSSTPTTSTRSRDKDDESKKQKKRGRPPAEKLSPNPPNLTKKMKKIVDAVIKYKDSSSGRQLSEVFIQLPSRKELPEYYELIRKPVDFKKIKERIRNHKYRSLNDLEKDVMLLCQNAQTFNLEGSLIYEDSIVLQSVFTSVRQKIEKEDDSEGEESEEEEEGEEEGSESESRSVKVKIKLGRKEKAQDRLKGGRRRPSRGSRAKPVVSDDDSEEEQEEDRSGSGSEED
Outline: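 HeLa cells stably expressing HiBiT-BRG1 plus LgBit, 5000/well, treated 24 h, then lysed with Nano-Glo HiBiT lytic reagent and luminescence read. % degradation normalised between DMSO (high control) and 2 μM reference BRM/BRG1 degrader (low control).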

[2] = biological target: T2, HiBit-BRM fusion protein (Homo sapiens, UniProt P51531); test: HiBiT-BRM cell-based degradation assay (Nano-Glo HiBiT Lytic Detection, 24 h); details: HeLa cell line expressing HiBiT-BRM; for DC50: read-out: BRM HiBit Degradation IC50
T2 construct: expressed in transfected cells
T2 sequence (P51531 whole entry, the tested form may be a part): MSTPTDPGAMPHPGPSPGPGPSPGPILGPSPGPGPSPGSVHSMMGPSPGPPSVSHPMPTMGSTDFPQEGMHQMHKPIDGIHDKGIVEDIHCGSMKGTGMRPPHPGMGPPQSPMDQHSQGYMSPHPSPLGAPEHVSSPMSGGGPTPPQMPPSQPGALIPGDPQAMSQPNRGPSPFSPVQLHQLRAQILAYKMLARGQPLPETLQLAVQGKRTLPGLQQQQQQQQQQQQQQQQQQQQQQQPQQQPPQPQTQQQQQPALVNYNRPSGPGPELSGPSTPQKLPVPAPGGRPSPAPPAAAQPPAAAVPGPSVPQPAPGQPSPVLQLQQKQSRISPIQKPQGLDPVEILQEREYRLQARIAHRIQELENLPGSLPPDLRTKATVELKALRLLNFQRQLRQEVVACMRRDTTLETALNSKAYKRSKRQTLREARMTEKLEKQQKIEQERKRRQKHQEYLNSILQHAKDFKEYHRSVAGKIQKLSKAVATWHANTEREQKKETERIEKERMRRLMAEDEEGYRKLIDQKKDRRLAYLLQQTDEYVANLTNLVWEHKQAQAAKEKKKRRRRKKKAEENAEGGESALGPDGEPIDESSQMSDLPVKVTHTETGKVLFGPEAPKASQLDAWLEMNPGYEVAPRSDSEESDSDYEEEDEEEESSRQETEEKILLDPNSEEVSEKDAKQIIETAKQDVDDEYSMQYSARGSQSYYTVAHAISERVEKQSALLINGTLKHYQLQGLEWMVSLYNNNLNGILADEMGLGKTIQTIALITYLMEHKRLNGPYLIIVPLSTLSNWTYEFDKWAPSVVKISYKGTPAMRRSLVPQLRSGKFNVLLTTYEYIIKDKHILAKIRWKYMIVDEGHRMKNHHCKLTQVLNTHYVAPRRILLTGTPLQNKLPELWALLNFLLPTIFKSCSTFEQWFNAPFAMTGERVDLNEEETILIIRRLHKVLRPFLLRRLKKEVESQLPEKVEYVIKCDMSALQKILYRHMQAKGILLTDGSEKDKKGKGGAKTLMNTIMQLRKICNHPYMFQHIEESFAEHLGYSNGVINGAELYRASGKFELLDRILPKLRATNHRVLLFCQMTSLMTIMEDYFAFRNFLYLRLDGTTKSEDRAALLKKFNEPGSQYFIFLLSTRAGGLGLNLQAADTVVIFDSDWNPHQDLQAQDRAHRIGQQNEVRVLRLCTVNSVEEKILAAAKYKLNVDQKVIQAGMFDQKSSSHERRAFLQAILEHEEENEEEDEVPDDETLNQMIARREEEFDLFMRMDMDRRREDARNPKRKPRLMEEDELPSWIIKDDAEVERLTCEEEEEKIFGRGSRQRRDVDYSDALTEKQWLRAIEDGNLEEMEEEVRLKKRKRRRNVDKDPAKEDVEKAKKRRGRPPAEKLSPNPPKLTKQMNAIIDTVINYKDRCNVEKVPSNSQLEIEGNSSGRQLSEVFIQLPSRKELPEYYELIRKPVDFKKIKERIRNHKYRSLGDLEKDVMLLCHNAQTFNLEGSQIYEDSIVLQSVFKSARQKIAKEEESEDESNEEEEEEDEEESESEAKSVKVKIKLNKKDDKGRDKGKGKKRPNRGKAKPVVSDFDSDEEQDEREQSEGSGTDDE
Outline: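 Percent BRM loss was derived from HiBiT luminescence relative to DMSO-treated cells and cells given 2 μM of a known BRM/BRG1 degrader. Treatment lasted 24 h in HiBiT-BRM HeLa cells, with a top final concentration of 30 μM.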

## Cc1ncsc1-c1ccc([C@H](C)NC(=O)[C@@H]2C[C@@H](O)CN2C(=O)[C@@H](c2cc(OCCN3CC[C@H](c4c(C)[nH]c5nnc(-c6ccccc6O)cc45)C3)no2)C(C)C)cc1 (single isomer, unassigned) [Compound 241]
[1]
  Dmax: < 50%
[2]
  BRM HiBit Degradation Maximum (%): B (“B” indicates maximum degradation ≥ 50%)
  DC50: > 0.01 µM

## Cc1ncsc1-c1ccc([C@H](C)NC(=O)[C@@H]2C[C@@H](O)CN2C(=O)[C@@H](NC(=O)CCCCCCCCC(=O)N2CC(c3cc4cc(-c5ccccc5O)nnc4[nH]3)C2)C(C)(C)C)cc1 [Compound 1, (2S,4R)-4-hydroxy-1-((S)-2-(10-(3-(3-(2-hydroxyphenyl)-7H-pyrrolo[2,3-c]pyridazin-6-yl)azetidin-1-yl)-10-oxodecanamido)-3,3-dimethylbutanoyl)-N—((S)-1-(4-(4-methylthiazol-5-yl)phenyl)ethyl)pyrrolidine-2-carboxamide]
[1]
  Dmax: < 50%
[2]
  BRM HiBit Degradation Maximum (%): A (“A” indicates maximum degradation ≥ 75%)
  DC50: > 0.1 µM

## Cc1ncsc1-c1ccc(CNC(=O)[C@@H]2C[C@@H](O)CN2C(=O)[C@@H](NC(=O)CCCCCCCCC(=O)N2CC(c3cc4cc(-c5ccccc5O)nnc4[nH]3)C2)C(C)(C)C)cc1 [Compound 2, (2S,4R)-4-hydroxy-1-((S)-2-(10-(3-(3-(2-hydroxyphenyl)-7H-pyrrolo[2,3-c]pyridazin-6-yl)azetidin-1-yl)-10-oxodecanamido)-3,3-dimethylbutanoyl)-N-(4-(4-methylthiazol-5-yl)benzyl)pyrrolidine-2-carboxamide]
[1]
  Dmax: < 50%
[2]
  BRM HiBit Degradation Maximum (%): A (“A” indicates maximum degradation ≥ 75%)
  DC50: > 0.1 µM

## Cc1ncsc1-c1ccc(CNC(=O)[C@@H]2C[C@@H](O)CN2C(=O)[C@@H](NC(=O)CCCCCCC(=O)N2CC(c3cc4cc(-c5ccccc5O)nnc4[nH]3)C2)C(C)(C)C)cc1 [Compound 3, (2S,4R)-4-hydroxy-1-((S)-2-(8-(3-(3-(2-hydroxyphenyl)-7H-pyrrolo[2,3-c]pyridazin-6-yl)azetidin-1-yl)-8-oxooctanamido)-3,3-dimethylbutanoyl)-N-(4-(4-methylthiazol-5-yl)benzyl)pyrrolidine-2-carboxamide]
[1]
  Dmax: < 50%
[2]
  BRM HiBit Degradation Maximum (%): B (“B” indicates maximum degradation ≥ 50%)
  DC50: > 1 µM

## Cc1ncsc1-c1ccc(CNC(=O)[C@@H]2C[C@@H](O)CN2C(=O)[C@@H](NC(=O)CCCCCCCCCCC(=O)N2CC(c3cc4cc(-c5ccccc5O)nnc4[nH]3)C2)C(C)(C)C)cc1 [Compound 4, (2S,4R)-4-hydroxy-1-((S)-2-(12-(3-(3-(2-hydroxyphenyl)-7H-pyrrolo[2,3-c]pyridazin-6-yl)azetidin-1-yl)-12-oxododecanamido)-3,3-dimethylbutanoyl)-N-(4-(4-methylthiazol-5-yl)benzyl)pyrrolidine-2-carboxamide]
[1]
  Dmax: < 50%
[2]
  BRM HiBit Degradation Maximum (%): A (“A” indicates maximum degradation ≥ 75%)
  DC50: > 0.1 µM

## Cc1ncsc1-c1ccc(CNC(=O)[C@@H]2C[C@@H](O)CN2C(=O)[C@@H](NC(=O)CCCCCCCCCC(=O)N2CC(c3cc4cc(-c5ccccc5O)nnc4[nH]3)C2)C(C)(C)C)cc1 [Compound 5, (2S,4R)-4-hydroxy-1-((S)-2-(11-(3-(3-(2-hydroxyphenyl)-7H-pyrrolo[2,3-c]pyridazin-6-yl)azetidin-1-yl)-11-oxoundecanamido)-3,3-dimethylbutanoyl)-N-(4-(4-methylthiazol-5-yl)benzyl)pyrrolidine-2-carboxamide]
[1]
  Dmax: < 50%
[2]
  BRM HiBit Degradation Maximum (%): A (“A” indicates maximum degradation ≥ 75%)
  DC50: > 0.1 µM

## Cc1ncsc1-c1ccc(CNC(=O)[C@@H]2C[C@@H](O)CN2C(=O)[C@@H](NC(=O)CCCC(=O)N2CC(c3cc4cc(-c5ccccc5O)nnc4[nH]3)C2)C(C)(C)C)cc1 [Compound 6, (2S,4R)-4-hydroxy-1-((S)-2-(5-(3-(3-(2-hydroxyphenyl)-7H-pyrrolo[2,3-c]pyridazin-6-yl)azetidin-1-yl)-5-oxopentanamido)-3,3-dimethylbutanoyl)-N-(4-(4-methylthiazol-5-yl)benzyl)pyrrolidine-2-carboxamide]
[1]
  Dmax: > 75%
  DC50: > 1 µM
[2]
  BRM HiBit Degradation Maximum (%): B (“B” indicates maximum degradation ≥ 50%)
  DC50: > 1 µM

## O=C1CCC(N2C(=O)c3cccc(OCCCCC(=O)N4CC(c5cc6cc(-c7ccccc7O)nnc6[nH]5)C4)c3C2=O)C(=O)N1 (centres unmarked) [Compound 7, 2-(2,6-dioxopiperidin-3-yl)-4-((5-(3-(3-(2-hydroxyphenyl)-7H-pyrrolo[2,3-c]pyridazin-6-yl)azetidin-1-yl)-5-oxopentyl)oxy)isoindoline-1,3-dione]
[1]
  Dmax: > 50%
  DC50: > 1 µM
[2]
  BRM HiBit Degradation Maximum (%): B (“B” indicates maximum degradation ≥ 50%)
  DC50: > 1 µM

## O=C1CCC(N2C(=O)c3cccc(OCCCC(=O)N4CC(c5cc6cc(-c7ccccc7O)nnc6[nH]5)C4)c3C2=O)C(=O)N1 (centres unmarked) [Compound 8, 2-(2,6-dioxopiperidin-3-yl)-4-(4-(3-(3-(2-hydroxyphenyl)-7H-pyrrolo[2,3-c]pyridazin-6-yl)azetidin-1-yl)-4-oxobutoxy)isoindoline-1,3-dione]
[1]
  Dmax: > 75%
  DC50: > 1 µM
[2]
  BRM HiBit Degradation Maximum (%): A (“A” indicates maximum degradation ≥ 75%)
  DC50: > 1 µM

## O=C1CCC(N2C(=O)c3ccc(NCCCCCCCCC(=O)N4CC(c5cc6cc(-c7ccccc7O)nnc6[nH]5)C4)cc3C2=O)C(=O)N1 (centres unmarked) [Compound 9, 2-(2,6-dioxopiperidin-3-yl)-5-((9-(3-(3-(2-hydroxyphenyl)-7H-pyrrolo[2,3-c]pyridazin-6-yl)azetidin-1-yl)-9-oxononyl)amino) isoindoline-1,3-dione]
[1]
  Dmax: < 50%
[2]
  BRM HiBit Degradation Maximum (%): B (“B” indicates maximum degradation ≥ 50%)
  DC50: > 1 µM

## Cc1ncsc1-c1ccc(CNC(=O)[C@@H]2C[C@@H](O)CN2C(=O)[C@@H](NC(=O)CCCCCCCC(=O)N2CC(c3cc4cc(-c5ccccc5O)nnc4[nH]3)C2)C(C)(C)C)cc1 [Compound 10, (2S,4R)-4-hydroxy-1-((S)-2-(9-(3-(3-(2-hydroxyphenyl)-7H-pyrrolo[2,3-c]pyridazin-6-yl)azetidin-1-yl)-9-oxononanamido)-3,3-dimethylbutanoyl)-N-(4-(4-methylthiazol-5-yl)benzyl)pyrrolidine-2-carboxamide]
[1]
  Dmax: < 50%
[2]
  BRM HiBit Degradation Maximum (%): B (“B” indicates maximum degradation ≥ 50%)
  DC50: > 1 µM

## Cc1ncsc1-c1ccc([C@H](C)NC(=O)[C@@H]2C[C@@H](O)CN2C(=O)[C@@H](NC(=O)CCCCCCCCCCCCCC(=O)N2CC(c3cc4cc(-c5ccccc5O)nnc4[nH]3)C2)C(C)(C)C)cc1 [Compound 11, (2S,4R)-4-hydroxy-1-((S)-2-(15-(3-(3-(2-hydroxyphenyl)-7H-pyrrolo[2,3-c]pyridazin-6-yl)azetidin-1-yl)-15-oxopentadecanamido)-3,3-dimethylbutanoyl)-N-((S)-1-(4-(4-methylthiazol-5-yl)phenyl)ethyl)pyrrolidine-2-carboxamide]
[1]
  Dmax: < 50%
[2]
  BRM HiBit Degradation Maximum (%): B (“B” indicates maximum degradation ≥ 50%)
  DC50: > 0.1 µM

## Cc1ncsc1-c1ccc([C@H](C)NC(=O)[C@@H]2C[C@@H](O)CN2C(=O)[C@@H](NC(=O)CCCCCCCCCCCCC(=O)N2CC(c3cc4cc(-c5ccccc5O)nnc4[nH]3)C2)C(C)(C)C)cc1 [Compound 12, (2S,4R)-4-hydroxy-1-((S)-2-(14-(3-(3-(2-hydroxyphenyl)-7H-pyrrolo[2,3-c]pyridazin-6-yl)azetidin-1-yl)-14-oxotetradecanamido)-3,3-dimethylbutanoyl)-N-((S)-1-(4-(4-methylthiazol-5-yl)phenyl)ethyl)pyrrolidine-2-carboxamide]
[1]
  Dmax: < 50%
[2]
  BRM HiBit Degradation Maximum (%): A (“A” indicates maximum degradation ≥ 75%)
  DC50: > 0.1 µM

## Cc1ncsc1-c1ccc([C@H](C)NC(=O)[C@@H]2C[C@@H](O)CN2C(=O)[C@@H](NC(=O)CCCCCCCCCCC(=O)N2CC(c3cc4cc(-c5ccccc5O)nnc4[nH]3)C2)C(C)(C)C)cc1 [Compound 13, (2S,4R)-4-hydroxy-1-((S)-2-(12-(3-(3-(2-hydroxyphenyl)-7H-pyrrolo[2,3-c]pyridazin-6-yl)azetidin-1-yl)-12-oxododecanamido)-3,3-dimethylbutanoyl)-N-((S)-1-(4-(4-methylthiazol-5-yl)phenyl)ethyl)pyrrolidine-2-carboxamide]
[1]
  Dmax: < 50%
[2]
  BRM HiBit Degradation Maximum (%): A (“A” indicates maximum degradation ≥ 75%)
  DC50: > 0.1 µM

## Cc1ncsc1-c1ccc(CNC(=O)[C@@H]2C[C@@H](O)CN2C(=O)[C@@H](NC(=O)CCN2CC(c3cc4cc(-c5ccccc5O)nnc4[nH]3)C2)C(C)(C)C)cc1 [Compound 16, (2S,4R)-4-hydroxy-1-((S)-2-(3-(3-(3-(2-hydroxyphenyl)-7H-pyrrolo[2,3-c]pyridazin-6-yl)azetidin-1-yl)propanamido)-3,3-dimethylbutanoyl)-N-(4-(4-methylthiazol-5-yl)benzyl)pyrrolidine-2-carboxamide]
[1]
  Dmax: < 50%
[2]
  BRM HiBit Degradation Maximum (%): C (“C” indicates maximum degradation < 50%)
